Test results: patent publication US8710233B2 (Gruenenthal GmbH, priority 2005, dated 2014)
Like-named read-outs stand apart in the source and are kept apart here.

Legend:
Type in all cases: cell-based
VR1/TRPV1 receptor = VR1/TRPV1 receptor (Homo sapiens, UniProt Q8NER1); test: IC50 (human) after pH stimulus; details: for inhibition at 1 µM: ne = no effect
[1] = target: T1, vanilloid receptor 1 (VR1/TRPV1) of the rat species (Rattus norvegicus, UniProt O35433); test: FLIPR Ca2+ influx assay on rat dorsal root ganglia cells (pharmacological method I)
T1 construct: The spinal column is removed from decapitated rats; from tissue; host or cells: primary cells dissociated from rat dorsal root ganglia
T1 sequence (O35433 whole entry): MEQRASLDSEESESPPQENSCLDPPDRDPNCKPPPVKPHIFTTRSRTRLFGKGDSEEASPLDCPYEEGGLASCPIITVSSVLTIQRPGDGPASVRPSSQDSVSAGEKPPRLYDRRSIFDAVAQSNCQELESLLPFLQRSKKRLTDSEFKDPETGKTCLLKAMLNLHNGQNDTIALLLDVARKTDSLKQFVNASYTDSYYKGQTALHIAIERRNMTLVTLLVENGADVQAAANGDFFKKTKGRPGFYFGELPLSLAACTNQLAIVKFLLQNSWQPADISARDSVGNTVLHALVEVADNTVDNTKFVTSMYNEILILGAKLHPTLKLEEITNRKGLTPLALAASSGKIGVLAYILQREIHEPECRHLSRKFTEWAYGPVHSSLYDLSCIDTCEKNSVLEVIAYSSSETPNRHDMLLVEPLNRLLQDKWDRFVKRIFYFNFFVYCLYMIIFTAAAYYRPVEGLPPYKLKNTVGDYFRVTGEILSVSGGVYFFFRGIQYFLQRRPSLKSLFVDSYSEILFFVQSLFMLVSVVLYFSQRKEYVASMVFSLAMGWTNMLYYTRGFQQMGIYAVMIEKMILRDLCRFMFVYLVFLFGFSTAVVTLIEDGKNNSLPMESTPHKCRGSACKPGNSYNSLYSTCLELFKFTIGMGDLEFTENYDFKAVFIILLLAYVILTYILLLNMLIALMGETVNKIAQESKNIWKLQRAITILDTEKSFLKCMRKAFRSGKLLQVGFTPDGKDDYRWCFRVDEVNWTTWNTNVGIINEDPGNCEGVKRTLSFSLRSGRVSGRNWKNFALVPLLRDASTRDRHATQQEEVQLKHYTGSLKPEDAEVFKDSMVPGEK
Outline: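 Primary rat dorsal root ganglion cells loaded with 2 μM Fluo-4, Ca2+ influx read on FLIPR as peak fluorescence. Triplicates, at least 3 independent experiments.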

vanilloid receptor (VR1) = target: T2, vanilloid receptor (VR1) (Homo sapiens, UniProt Q8NER1); test: FLIPR Ca2+ influx assay on CHO K1 cells transfected with the VR1 gene (pharmacological method II)
T2 construct: expressed in transfected cells; host or cells: CHO K1 cells (ECACC), stably transfected
T2 sequence (Q8NER1 whole entry): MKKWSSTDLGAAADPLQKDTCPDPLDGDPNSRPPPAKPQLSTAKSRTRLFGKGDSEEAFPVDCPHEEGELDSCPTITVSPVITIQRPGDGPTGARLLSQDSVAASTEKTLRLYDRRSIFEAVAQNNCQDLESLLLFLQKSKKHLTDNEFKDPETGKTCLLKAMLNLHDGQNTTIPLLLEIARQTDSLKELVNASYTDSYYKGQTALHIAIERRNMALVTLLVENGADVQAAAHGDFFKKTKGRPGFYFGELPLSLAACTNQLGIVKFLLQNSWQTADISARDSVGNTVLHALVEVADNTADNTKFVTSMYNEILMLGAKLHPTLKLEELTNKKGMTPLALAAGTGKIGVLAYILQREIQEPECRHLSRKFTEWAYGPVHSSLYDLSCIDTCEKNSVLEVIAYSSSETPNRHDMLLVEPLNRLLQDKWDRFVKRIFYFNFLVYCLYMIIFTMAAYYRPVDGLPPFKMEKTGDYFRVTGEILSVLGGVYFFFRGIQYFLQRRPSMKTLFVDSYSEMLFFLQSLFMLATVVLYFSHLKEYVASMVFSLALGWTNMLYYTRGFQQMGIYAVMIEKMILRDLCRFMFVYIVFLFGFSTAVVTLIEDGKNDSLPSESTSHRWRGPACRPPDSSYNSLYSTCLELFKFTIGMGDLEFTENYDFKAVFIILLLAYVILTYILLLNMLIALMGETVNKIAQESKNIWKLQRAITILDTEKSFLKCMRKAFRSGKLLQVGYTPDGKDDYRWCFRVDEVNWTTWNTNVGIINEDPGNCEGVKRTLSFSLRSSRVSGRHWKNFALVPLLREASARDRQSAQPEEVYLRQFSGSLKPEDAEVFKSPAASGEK

[2] = Ki (rat) Cap., table 4, capsaicin
[3] = table 4, capsaicin, read-out: Ki (human) Cap.
[4] = read-out: inhibition in percent, IC50 (human) after pH stimulus
[5] = table 4, capsaicin, read-out: Ki (rat) Cap.
[6] = Table 2, displacement of capsaicin (100 nM), Cheng-Prusoff, read-out: Ki (rat)
[7] = Table 2, displacement of capsaicin (100 nM), Cheng-Prusoff, read-out: Ki (human)

Sequence of VR1/TRPV1 receptor (Q8NER1 whole entry): as above

Row | Structure (SMILES) | IC50 (VR1/TRPV1 receptor; table 4) | Ki (vanilloid receptor (VR1); [3]) | Ki [1, 5] | further results
1 | CC(C(=O)NCc1ccc(C(F)(F)F)nc1OC1CCC1)c1ccc(NS(C)(=O)=O)c(F)c1 (stereo not drawn) [Example 156, N-(2-cyclobutoxy-6-trifluoromethyl-pyridin-3-ylmethyl)-2-(3-fluoro-4-methylsulfonamido-phenyl)-propionamide] | 69.8 nM | 1.4 nM | – | Ki [1, 2]: 1.7 nM
2 | CC(C(=O)NCc1ccc(C(F)(F)F)nc1N1CCN(c2ccncc2)CC1)c1ccc(NS(C)(=O)=O)c(F)c1 (stereo not drawn) [Example 176, 2-(3-fluoro-4-methylsulfonamido-phenyl)-N-[2-(4-pyridin-4-yl-piperazin-1-yl)-6-trifluoromethyl-pyridin-3-ylmethyl]-propionamide] | – | – | – | inhibition at 1 µM (VR1/TRPV1 receptor; [4]): 13%; inhibition at 10 µM (VR1/TRPV1 receptor; [4]): 43%; inhibition at 10 µM ([1]; @ 10 μM, read-out: inhibition in percent, Ki (rat) Cap.): 60%; inhibition at 10 µM (vanilloid receptor (VR1); CHO-K1, @ 10 μM, read-out: inhibition in percent, Ki (human) Cap.): 63%
3 | CC(C)COc1nc(C(F)(F)Cl)ccc1CNC(=O)C(C)c1ccc(NS(C)(=O)=O)c(F)c1 (stereo not drawn) [Example 208, N-[6-(chloro-difluoro-methyl)-2-isobutoxy-pyridin-3-ylmethyl]-2-(3-fluoro-4-methylsulfonamido-phenyl)-propionamide] | 38.6 nM | 0.6 nM | 0.5 nM | –
4 | CC1CCN(c2nc(C(F)(F)F)ccc2CNC(=O)C(C)c2ccc(NS(C)(=O)=O)cc2)CC1 (stereo not drawn) [Example 262, 2-(4-methylsulfonamido-phenyl)-N-(4-methyl-6′-trifluoromethyl-3,4,5,6-tetrahydro-2H-[1,2′]bipyridinyl-3′-ylmethyl)-propionamide] | – | 1.2 nM | 1.7 nM | inhibition at 0.1 µM (VR1/TRPV1 receptor; @ 0.1 μM, read-out: inhibition in percent, IC50 (human) after pH stimulus): 6%; inhibition at 1 µM (VR1/TRPV1 receptor; [4]): 58%
5 | CCCCOc1nc(C(F)(F)F)ccc1CNC(=O)C(C)c1ccc(NS(C)(=O)=O)c(C)c1 (stereo not drawn) [Example 256, N-(2-butoxy-6-trifluoromethyl-pyridin-3-ylmethyl)-2-(4-methylsulfonamido-3-methyl-phenyl)-propionamide] | – | 0.6 nM | 0.3 nM | inhibition at 1 µM (VR1/TRPV1 receptor; [4]): 59%
6 | CC(C(=O)NCc1ccc(C(F)(F)F)cc1N1CCN(c2ccc(C(F)(F)F)cc2)CC1)c1ccc(NS(C)(=O)=O)c(F)c1 (stereo not drawn) [Example 248, 2-(3-fluoro-4-methylsulfonamido-phenyl)-N-{4-trifluoromethyl-2-[4-(4-trifluoromethyl-phenyl)-piperazin-1-yl]-benzyl}-propionamide] | – | 3.9 nM | 0.9 nM | inhibition at 10 µM (VR1/TRPV1 receptor; [4]): 66%; inhibition at 25 µM (VR1/TRPV1 receptor; @ 25 μM, read-out: inhibition in percent, IC50 (human) after pH stimulus): 74%
7 | Cc1ccc(N2CCN(c3cc(C(F)(F)F)ccc3CNC(=O)C(C)c3ccc(NS(C)(=O)=O)c(F)c3)CC2)cc1 (stereo not drawn) [Example 246, 2-(3-fluoro-4-methylsulfonamido-phenyl)-N-[2-(4-p-tolyl-piperazin-1-yl)-4-trifluoromethyl-benzyl]-propionamide] | 87 nM | 0.7 nM | 0.5 nM | –
8 | CC(C(=O)NCc1ccc(C(F)(F)F)nc1N1CCCC1)c1ccc(NS(C)(=O)=O)c(F)c1 (stereo not drawn) [Example 13, 2-(3-fluoro-4-(methylsulfonamido)phenyl)-N-((2-(pyrrolidin-1-yl)-6-(trifluoromethyl)pyridin-3-yl)methyl)propanamide] | – | – | – | IC50 (VR1/TRPV1 receptor; Table 2): 211 nM; Ki [1, 6]: 3.8 nM; Ki (vanilloid receptor (VR1); [7]): 0.6 nM
9 | CCCCCCc1nc(C(F)(F)F)ccc1CNC(=O)C(C)c1ccc(NS(C)(=O)=O)c(F)c1 (stereo not drawn) [Example 267, 2-(3-fluoro-4-methylsulfonamido-phenyl)-N-(2-hexyl-6-trifluoromethyl-pyridin-3-ylmethyl)-propionamide] | 24 nM | 1.6 nM | 1.7 nM | –
10 | CC(C(=O)NCc1ccc(C(C)(C)C)cc1N1CCCCC1)c1ccc(NS(C)(=O)=O)c(F)c1 (stereo not drawn) [Example 63, N-(4-tert-butyl-2-(piperidin-1-yl)benzyl)-2-(3-fluoro-4-(methylsulfonamido)-phenyl)propanamide] | – | 28.6 nM | 23.9 nM | inhibition at 1 µM (VR1/TRPV1 receptor; [4]): 70%
11 | CC1CC(C)CN(c2nc(C(F)(F)F)ccc2CNC(=O)C(C)c2ccc(NS(C)(=O)=O)c(F)c2)C1 (stereo not drawn) [Example 79, 2-(3-fluoro-4-methylsulfonamido-phenyl)-N-(2-3,5 dimethylpiperidin-1-yl-6-trifluoromethyl-pyridin-3-ylmethyl)-propionamide] | 25.6 nM | 0.7 nM | 0.8 nM | –
12 | CC(C(=O)NCc1ccc(C(F)(F)Cl)nc1OCc1ccccc1)c1ccc(NS(C)(=O)=O)c(F)c1 (stereo not drawn) [Example 169, N-[2-benzyloxy-6-(chloro-difluoro-methyl)-pyridin-3-ylmethyl]-2-(3-fluoro-4-methylsulfonamido-phenyl)-propionamide] | 40.5 nM | 0.9 nM | 0.6 nM | –
13 | Cc1ccc(COc2nc(C(F)(F)F)ccc2CNC(=O)C(C)c2ccc(NS(C)(=O)=O)c(F)c2)cc1 (stereo not drawn) [Example 172, 2-(3-fluoro-4-methylsulfonamido-phenyl)-N-[2-(4-methyl-benzyloxy)-6-trifluoromethyl-pyridin-3-ylmethyl]-propionamide] | 53 nM | 1.5 nM | 0.4 nM | –
14 | CC(C(=O)NCc1ccc(C(F)(F)F)nc1N(C)c1ccccc1)c1ccc(NS(C)(=O)=O)c(F)c1 (stereo not drawn) [Example 205, 2-(3-fluoro-4-methylsulfonamido-phenyl)-N-[2-(methyl-phenyl-amino)-6-trifluoromethyl-pyridin-3-ylmethyl]-propionamide] | 57.4 nM | 0.9 nM | 11.4 nM | –
15 | CCCCc1ccc(COc2nc(C(F)(F)F)ccc2CNC(=O)C(C)c2ccc(NS(C)(=O)=O)c(F)c2)cc1 (stereo not drawn) [Example 243, N-[2-(4-butyl-benzyloxy)-6-trifluoromethyl-pyridin-3-ylmethyl]-2-(3-fluoro-4-methylsulfonamido-phenyl)-propionamide] | 337 nM | 16 nM | 5.1 nM | –
16 | CC(C(=O)NCc1ccc(C(F)(F)F)nc1OC1CCC(C(C)(C)C)CC1)c1ccc(NS(C)(=O)=O)c(F)c1 (stereo not drawn) [Example 170, N-[2-(4-tert-butyl-cyclohexyloxy)-6-trifluoromethyl-pyridin-3-ylmethyl]-2-(3-fluoro-4-methylsulfonamido-phenyl)-propionamide] | 242 nM | 7.7 nM | 5.1 nM | –
17 | CC(C(=O)NCc1ccc(C(F)(F)F)nc1N1CCCC1)c1ccc(NS(C)(=O)=O)c(Cl)c1 (stereo not drawn) [Example 102, 2-(3-chloro-4-methylsulfonamido-phenyl)-N-(2-pyrrolidin-1-yl-6 trifluoromethyl-pyridin-3-ylmethyl)-propionamide] | – | 4.2 nM | 7.4 nM | inhibition at 10 µM (VR1/TRPV1 receptor; [4]): 18%
18 | CC(C(=O)NCc1ccc(C(F)(F)F)nc1OC1CCCC1)c1ccc(NS(C)(=O)=O)c(F)c1 (stereo not drawn) [Example 21, N-((2-cyclopentyloxy-6-(trifluoromethyl)pyridin-3-yl)methyl)-2-(3-fluoro-4-(methylsulfonamido)phenyl)propanamide] | – | – | – | IC50 (VR1/TRPV1 receptor; Table 2): 29 nM; Ki [1, 6]: 1.3 nM; Ki (vanilloid receptor (VR1); [7]): 0.9 nM
19 | CC(C)COc1cc(C(C)(C)C)ccc1CNC(=O)C(C)c1ccc(NS(C)(=O)=O)c(F)c1 (stereo not drawn) [Example 133, N-(4-tert-butyl-2-isobutoxy-benzyl)-2-(3-fluoro-4-methylsulfonamido-phenyl)-propionamide] | – | 2.1 nM | 0.7 nM | inhibition at 1 µM (VR1/TRPV1 receptor; [4]): 62%
20 | CCc1ccc(COc2nc(C(F)(F)F)ccc2CNC(=O)C(C)c2ccc(NS(C)(=O)=O)c(F)c2)cc1 (stereo not drawn) [Example 242, N-[2-(4-ethyl-benzyloxy)-6-trifluoromethyl-pyridin-3-ylmethyl]-2-(3-fluoro-4-methylsulfonamido-phenyl)-propionamide] | 165 nM | 3.7 nM | – | Ki [1, 2]: 1.2 nM
